# Tests used:
# [1] = test system: LU99 xenograft tumors; test: In vivo combination study (LU99 model), Example 4; set-up: species or system female nu/nu mice; details: MRTX1719 100 mg/kg PO QD, A-1331852 25 mg/kg PO BID, alone or combined
# Source text: Immunodeficient female nu/nu mice were implanted with 5×10^6 LU99 cancer cells in 50% Matrigel. Tumor volume measurements were collected using calipers and determined utilizing the formula 0.5×L×W^2 in which L refers to length and W refers to width of each tumor. When tumors reached approximately 125-150 mm^3, animals were randomized to receive A) vehicle, B) a PRMT5 inhibitor, C) navitoclax (ABT-263), D) venetoclax (ABT-199), E) A-1331852, F) the PRMT5 inhibitor and navitoclax, F) the PRMT5 inhibitor and venetoclax, or G) the PRMT5 inhibitor and A-1331852 all administered orally (PO) with the indicated dose and schedule for 20-34 days. Tumor volume was measured twice a week (n=5/treatment group). Average tumor volume and standard error of the mean was calculated and plotted at each study day using GraphPad Prism.
# Example 4 was carried out according to the in vivo study procedure described above in Example 1.
# The PRMT5 inhibitor was MRTX1719 administered at 100 mg/kg once a day (QD). MRTX1719 is (2M)-2-(4-(4-(aminomethyl)-1-oxo-1,2-dihydrophthalazin-6-yl)-1-methyl-1H-pyrazol-5-yl)-4-chloro-6-cyclopropoxy-3-fluorobenzonitrile, disclosed as Example 16-8 at p. 307 of the international patent publication No. WO 2021/050915 A1, published 18 Mar. 2021, incorporated by reference in its entirety. The BCL-2 family inhibitor, A-1331852 was administered at 25 mg/kg twice a day (BID) and synthesized at Wuxi AppTec (Wuhan, China).
# [2] = test system: A549; test: In vitro combination synergy, A549 (Cell-Titer Glo); assay type: cell-based; details: combined with exemplary PRMT5 inhibitor, 120 h, sum of Loewe, Bliss, HSA and ZIP scores
# Experimental: (§1) A panel of MTAP-deleted cancer cell lines was assembled to determine whether combining BCL-2 family inhibitors with exemplary PRMT5 inhibitors disclosed herein results in synergistic activity.
# (§2) [Assays for determining the synergy score for the pairwise combinations for each cell line were performed in triplicate. 384 or 96-well plates plus additional wells of a separate 384 or 96-well control plate for determining baseline luminescence were seeded with cells of a particular MTAP-deleted cell line in a suitable growth medium for that cell line, e.g., RPMI 1640 medium supplemented with 10% FBS and any cell line specific reagents needed for growth. The plates were incubated overnight at 37 °C in a 5% CO2 atmosphere.
# (§3) To each of the designated baseline wells, Cell-Titer Glo reagent (CTG; Promega Corporation) was added to each well and the plates were incubated for 20 min shaking at room temperature. Baseline luminescence was quantitated using a BMG ClarioStar multimode plate reader according to the manufacturer's instructions.
# (§4) A series of 1000× drug dilutions in 100% DMSO was prepared that includes a 9-point single agent 3-fold dilution of the exemplary PRMT5 inhibitor (of the type described in WO2021/050915) with a top dose of 3000 nM (and a 6-point single agent 5-fold dilution of the BCL-2 family inhibitor with a top dose of 3000 nM as reference standards.
# (§5) A 10× intermediate dosing plate was prepared in serum free medium that contains arrayed single agent dilutions of exemplary PRMT5 inhibitor (of the type described in WO2021/050915) and or the BCL-2 family inhibitor. In addition, a matrix of 54 dilution combinations of exemplary PRMT5 inhibitor (of the type described in WO2021/050915) and the BCL-2 family inhibitor was prepared as test samples.
# (§6) To each corresponding well of the 384-well plates seeded with the appropriate cell line above, 10× single agent and the 54 combinations of the dose matrix was added and the plates were incubated for 120 hours at 37 °C in 5% CO2 atmosphere. Cell-Titer Glo reagent (CTG) was added to each test well, the plates were incubated for 20 min shaking at room temperature, and luminescence was quantitated using a BMG ClarioStar multimode plate reader according to the manufacturer's instructions. To normalize test samples, the determined baseline luminescence was subtracted from each test sample prior to analysis and mean values are calculated from replicate samples.
# (§7) The output of the data from each mathematical model is the assignment of a relative synergy score. The data reported in Table 6 are the aggregate sum of the Loewe additivity, Bliss independence, Highest Single Agent and ZIP synergy scores (“Composite Synergy Score”).
# [3] = test system: H2228; test: In vitro combination synergy, H2228 (Cell-Titer Glo); assay type: cell-based; details: combined with exemplary PRMT5 inhibitor, 120 h, sum of Loewe, Bliss, HSA and ZIP scores
# Experimental: as §1, §2, §3, §4, §5, §6, §7
# [4] = test system: SW1573; test: In vitro combination synergy, SW1573 (Cell-Titer Glo); assay type: cell-based; details: combined with exemplary PRMT5 inhibitor, 120 h, sum of Loewe, Bliss, HSA and ZIP scores
# Experimental: as §1, §2, §3, §4, §5, §6, §7
# [5] = test system: Mero83; test: In vitro combination synergy, Mero83 (Cell-Titer Glo); assay type: cell-based; details: combined with exemplary PRMT5 inhibitor, 120 h, sum of Loewe, Bliss, HSA and ZIP scores
# Experimental: as §1, §2, §3, §4, §5, §6, §7
# [6] = test system: SU8686; test: In vitro combination synergy, SU8686 (Cell-Titer Glo); assay type: cell-based; details: combined with exemplary PRMT5 inhibitor, 120 h, sum of Loewe, Bliss, HSA and ZIP scores
# Experimental: as §1, §2, §3, §4, §5, §6, §7
# [7] = test system: RT4; test: In vitro combination synergy, RT4 (Cell-Titer Glo); assay type: cell-based; details: combined with exemplary PRMT5 inhibitor, 120 h, sum of Loewe, Bliss, HSA and ZIP scores
# Experimental: as §1, §2, §3, §4, §5, §6, §7
# [8] = test system: H2052; test: In vitro combination synergy, H2052 (Cell-Titer Glo); assay type: cell-based; details: combined with exemplary PRMT5 inhibitor, 120 h, sum of Loewe, Bliss, HSA and ZIP scores
# Experimental: as §1, §2, §3, §4, §5, §6, §7
# [9] = test system: HCC4006; test: In vitro combination synergy, HCC4006 (Cell-Titer Glo); assay type: cell-based; details: combined with exemplary PRMT5 inhibitor, 120 h, sum of Loewe, Bliss, HSA and ZIP scores
# Experimental: as §1, §2, §3, §4, §5, §6, §7
# [10] = test system: H1650; test: In vitro combination synergy, H1650 (Cell-Titer Glo); assay type: cell-based; details: combined with exemplary PRMT5 inhibitor, 120 h, sum of Loewe, Bliss, HSA and ZIP scores
# Experimental: as §1, §2, §3, §4, §5, §6, §7
# [11] = test system: H2452; test: In vitro combination synergy, H2452 (Cell-Titer Glo); assay type: cell-based; details: combined with exemplary PRMT5 inhibitor, 120 h, sum of Loewe, Bliss, HSA and ZIP scores
# Experimental: as §1, §2, §3, §4, §5, §6, §7
# [12] = test system: Mero84; test: In vitro combination synergy, Mero84 (Cell-Titer Glo); assay type: cell-based; details: combined with exemplary PRMT5 inhibitor, 120 h, sum of Loewe, Bliss, HSA and ZIP scores
# Experimental: as §1, §2, §3, §4, §5, §6, §7
# [13] = test system: Mero14; test: In vitro combination synergy, Mero14 (Cell-Titer Glo); assay type: cell-based; details: combined with exemplary PRMT5 inhibitor, 120 h, sum of Loewe, Bliss, HSA and ZIP scores
# Experimental: as §1, §2, §3, §4, §5, §6, §7
# [14] = test system: Miapaca2; test: In vitro combination synergy, Miapaca2 (Cell-Titer Glo); assay type: cell-based; details: combined with exemplary PRMT5 inhibitor, 120 h, sum of Loewe, Bliss, HSA and ZIP scores
# Experimental: as §1, §2, §3, §4, §5, §6, §7
# [15] = test system: LU99; test: In vitro combination synergy, LU99 (Cell-Titer Glo); assay type: cell-based; details: combined with exemplary PRMT5 inhibitor, 120 h, sum of Loewe, Bliss, HSA and ZIP scores
# Experimental: as §1, §2, §3, §4, §5, §6, §7
# [16] = test system: H1437; test: In vitro combination synergy, H1437 (Cell-Titer Glo); assay type: cell-based; details: combined with exemplary PRMT5 inhibitor, 120 h, sum of Loewe, Bliss, HSA and ZIP scores
# Experimental: as §1, §2, §3, §4, §5, §6, §7
# [17] = oral; cited from earlier work
SMILES,Average Tumor Volume ([1]; day 2) [mm^3],Average Tumor Volume ([1]; day 6) [mm^3],Average Tumor Volume ([1]; day 9) [mm^3],Average Tumor Volume ([1]; day 14) [mm^3],Average Tumor Volume ([1]; day 16) [mm^3],Average Tumor Volume ([1]; day 20) [mm^3],Average Tumor Volume ([1]; day −1) [mm^3],Composite Synergy Score [2],Composite Synergy Score [3],Composite Synergy Score [4],Composite Synergy Score [5],Composite Synergy Score [6],Composite Synergy Score [7],Composite Synergy Score [8],Composite Synergy Score [9],Composite Synergy Score [10],Composite Synergy Score [11],Composite Synergy Score [12],Composite Synergy Score [13],Composite Synergy Score [14],further results
"Cn1ncc(-c2ccc3c(=O)[nH]nc(CN)c3c2)c1-c1c(F)c(Cl)cc(OC2CC2)c1C#N (atropisomer, axis not shown; (M)) [MRTX1719, (2M)-2-(4-(4-(aminomethyl)-1-oxo-1,2-dihydrophthalazin-6-yl)-1-methyl-1H-pyrazol-5-yl)-4-chloro-6-cyclopropoxy-3-fluorobenzonitrile]",221,229,232,268,296,360,137,–,–,–,–,–,–,–,–,–,–,–,–,–,–
"CC1(C)CCC(c2ccc(Cl)cc2)=C(CN2CCN(c3ccc(C(=O)NS(=O)(=O)c4ccc(N[C@H](CCN5CCOCC5)CSc5ccccc5)c(S(=O)(=O)C(F)(F)F)c4)cc3)CC2)C1 [ABT-263, navitoclax]",–,–,–,–,–,–,–,23,24,14,−26,12,24,11,23,32,−20,−4,18,16,Composite Synergy Score [15]: 41; Composite Synergy Score [16]: 13
Cc1c(-c2ccc(N3CCc4cccc(C(=O)Nc5nc6ccccc6s5)c4C3)nc2C(=O)O)cnn1CC12CC3CC(CC(C3)C1)C2 [A-1331852],217,393,547,960,1228,1331,137,42,36,50,11,50,40,12,63,62,42,0,28,70,bioavailable when administered orally [17]: known to be bioavailable when administered orally; Composite Synergy Score [15]: 64; Composite Synergy Score [16]: 36

# Reference: US20260355188A1, “COMBINATION THERAPIES USING PRMT5 INHIBITORS AND BCL-2 FAMILY INHIBITORS FOR THE TREATMENT OF CANCER” (MIRATI THERAPEUTICS, INC., priority 2022, published 2026)
